Reference: US9340590B2 (priority 2011, dated 2016)
pIC50: −log10 of the molar value. Where two headings read alike, the source gives them in different places. Positions of bridges follow the written chain, without caps; N, C: chain ends. Non-standard residues stand in square brackets, D forms with d. Residues, ends and D or L forms follow the SMILES beside them. 1Nal = N[C@@H](Cc1cccc2ccccc12)C(=O)O; 2Nal = N[C@@H](Cc1ccc2ccccc2c1)C(=O)O; Abu = CC[C@H](N)C(=O)O

Legend:
Assay in all cases: cell-based
hNav1.7 = hNav1.7 (Homo sapiens, UniProt Q15858); type: cell-based; settings: IonWorks Quattro
hNav1.3 = hNav1.3 (Homo sapiens, UniProt Q9NY46); settings: IonWorks Quattro, read-out: IWQ Use Nav1.3
hNav1.3, sequence (Q9NY46 whole entry, looked up): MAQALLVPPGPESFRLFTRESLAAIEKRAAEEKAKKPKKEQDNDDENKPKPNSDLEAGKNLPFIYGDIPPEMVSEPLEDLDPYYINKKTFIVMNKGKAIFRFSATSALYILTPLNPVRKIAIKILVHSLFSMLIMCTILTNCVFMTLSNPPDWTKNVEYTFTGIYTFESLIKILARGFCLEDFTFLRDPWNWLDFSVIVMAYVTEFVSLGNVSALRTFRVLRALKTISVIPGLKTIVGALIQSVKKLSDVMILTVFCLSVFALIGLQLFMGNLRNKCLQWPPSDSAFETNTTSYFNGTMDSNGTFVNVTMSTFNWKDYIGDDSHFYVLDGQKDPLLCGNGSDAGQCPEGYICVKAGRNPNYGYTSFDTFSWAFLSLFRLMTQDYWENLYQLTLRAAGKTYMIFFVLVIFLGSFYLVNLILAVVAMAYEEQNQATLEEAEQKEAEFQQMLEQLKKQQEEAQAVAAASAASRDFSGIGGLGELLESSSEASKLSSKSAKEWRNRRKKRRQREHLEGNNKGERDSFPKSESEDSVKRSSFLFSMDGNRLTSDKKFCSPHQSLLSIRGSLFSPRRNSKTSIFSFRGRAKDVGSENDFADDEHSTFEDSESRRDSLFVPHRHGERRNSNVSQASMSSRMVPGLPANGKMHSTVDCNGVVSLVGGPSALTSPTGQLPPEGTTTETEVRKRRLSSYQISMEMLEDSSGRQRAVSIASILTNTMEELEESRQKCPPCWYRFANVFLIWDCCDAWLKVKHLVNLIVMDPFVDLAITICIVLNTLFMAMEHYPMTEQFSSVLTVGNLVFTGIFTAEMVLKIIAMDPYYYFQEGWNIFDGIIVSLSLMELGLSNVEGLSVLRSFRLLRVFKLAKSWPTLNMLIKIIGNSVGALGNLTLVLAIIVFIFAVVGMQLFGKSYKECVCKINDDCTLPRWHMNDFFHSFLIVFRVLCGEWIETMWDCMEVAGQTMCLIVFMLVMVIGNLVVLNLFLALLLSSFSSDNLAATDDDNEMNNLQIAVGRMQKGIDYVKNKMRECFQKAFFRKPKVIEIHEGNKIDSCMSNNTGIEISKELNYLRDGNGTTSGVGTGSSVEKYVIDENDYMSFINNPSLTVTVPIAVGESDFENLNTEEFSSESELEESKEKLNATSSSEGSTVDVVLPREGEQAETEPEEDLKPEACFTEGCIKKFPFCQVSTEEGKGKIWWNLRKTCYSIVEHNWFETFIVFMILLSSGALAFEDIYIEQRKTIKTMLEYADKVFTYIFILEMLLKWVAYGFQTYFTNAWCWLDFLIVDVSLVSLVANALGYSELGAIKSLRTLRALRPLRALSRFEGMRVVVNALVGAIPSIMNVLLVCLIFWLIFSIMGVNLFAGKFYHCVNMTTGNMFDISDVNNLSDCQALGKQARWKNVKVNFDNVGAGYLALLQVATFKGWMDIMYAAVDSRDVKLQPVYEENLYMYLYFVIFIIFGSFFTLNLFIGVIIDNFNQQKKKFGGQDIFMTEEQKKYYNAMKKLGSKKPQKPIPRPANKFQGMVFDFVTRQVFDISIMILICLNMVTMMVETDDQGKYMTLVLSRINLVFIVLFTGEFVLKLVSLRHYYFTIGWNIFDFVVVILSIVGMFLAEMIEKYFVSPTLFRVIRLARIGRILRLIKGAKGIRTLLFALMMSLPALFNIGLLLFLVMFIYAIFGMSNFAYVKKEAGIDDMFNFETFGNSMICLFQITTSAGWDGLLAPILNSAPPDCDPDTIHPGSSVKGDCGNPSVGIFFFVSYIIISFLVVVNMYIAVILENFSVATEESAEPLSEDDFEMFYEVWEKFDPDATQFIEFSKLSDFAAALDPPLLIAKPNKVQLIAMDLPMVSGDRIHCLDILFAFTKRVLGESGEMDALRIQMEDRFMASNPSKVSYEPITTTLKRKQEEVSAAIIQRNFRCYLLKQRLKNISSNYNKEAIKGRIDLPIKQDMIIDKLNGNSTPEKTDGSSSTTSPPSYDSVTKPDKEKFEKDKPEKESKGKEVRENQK

hNav1.5 = hNav1.5 (Homo sapiens, UniProt Q14524); settings: IonWorks Quattro, read-out: IWQ Use Nav1.5
hNav1.5, sequence (Q14524 whole entry, looked up): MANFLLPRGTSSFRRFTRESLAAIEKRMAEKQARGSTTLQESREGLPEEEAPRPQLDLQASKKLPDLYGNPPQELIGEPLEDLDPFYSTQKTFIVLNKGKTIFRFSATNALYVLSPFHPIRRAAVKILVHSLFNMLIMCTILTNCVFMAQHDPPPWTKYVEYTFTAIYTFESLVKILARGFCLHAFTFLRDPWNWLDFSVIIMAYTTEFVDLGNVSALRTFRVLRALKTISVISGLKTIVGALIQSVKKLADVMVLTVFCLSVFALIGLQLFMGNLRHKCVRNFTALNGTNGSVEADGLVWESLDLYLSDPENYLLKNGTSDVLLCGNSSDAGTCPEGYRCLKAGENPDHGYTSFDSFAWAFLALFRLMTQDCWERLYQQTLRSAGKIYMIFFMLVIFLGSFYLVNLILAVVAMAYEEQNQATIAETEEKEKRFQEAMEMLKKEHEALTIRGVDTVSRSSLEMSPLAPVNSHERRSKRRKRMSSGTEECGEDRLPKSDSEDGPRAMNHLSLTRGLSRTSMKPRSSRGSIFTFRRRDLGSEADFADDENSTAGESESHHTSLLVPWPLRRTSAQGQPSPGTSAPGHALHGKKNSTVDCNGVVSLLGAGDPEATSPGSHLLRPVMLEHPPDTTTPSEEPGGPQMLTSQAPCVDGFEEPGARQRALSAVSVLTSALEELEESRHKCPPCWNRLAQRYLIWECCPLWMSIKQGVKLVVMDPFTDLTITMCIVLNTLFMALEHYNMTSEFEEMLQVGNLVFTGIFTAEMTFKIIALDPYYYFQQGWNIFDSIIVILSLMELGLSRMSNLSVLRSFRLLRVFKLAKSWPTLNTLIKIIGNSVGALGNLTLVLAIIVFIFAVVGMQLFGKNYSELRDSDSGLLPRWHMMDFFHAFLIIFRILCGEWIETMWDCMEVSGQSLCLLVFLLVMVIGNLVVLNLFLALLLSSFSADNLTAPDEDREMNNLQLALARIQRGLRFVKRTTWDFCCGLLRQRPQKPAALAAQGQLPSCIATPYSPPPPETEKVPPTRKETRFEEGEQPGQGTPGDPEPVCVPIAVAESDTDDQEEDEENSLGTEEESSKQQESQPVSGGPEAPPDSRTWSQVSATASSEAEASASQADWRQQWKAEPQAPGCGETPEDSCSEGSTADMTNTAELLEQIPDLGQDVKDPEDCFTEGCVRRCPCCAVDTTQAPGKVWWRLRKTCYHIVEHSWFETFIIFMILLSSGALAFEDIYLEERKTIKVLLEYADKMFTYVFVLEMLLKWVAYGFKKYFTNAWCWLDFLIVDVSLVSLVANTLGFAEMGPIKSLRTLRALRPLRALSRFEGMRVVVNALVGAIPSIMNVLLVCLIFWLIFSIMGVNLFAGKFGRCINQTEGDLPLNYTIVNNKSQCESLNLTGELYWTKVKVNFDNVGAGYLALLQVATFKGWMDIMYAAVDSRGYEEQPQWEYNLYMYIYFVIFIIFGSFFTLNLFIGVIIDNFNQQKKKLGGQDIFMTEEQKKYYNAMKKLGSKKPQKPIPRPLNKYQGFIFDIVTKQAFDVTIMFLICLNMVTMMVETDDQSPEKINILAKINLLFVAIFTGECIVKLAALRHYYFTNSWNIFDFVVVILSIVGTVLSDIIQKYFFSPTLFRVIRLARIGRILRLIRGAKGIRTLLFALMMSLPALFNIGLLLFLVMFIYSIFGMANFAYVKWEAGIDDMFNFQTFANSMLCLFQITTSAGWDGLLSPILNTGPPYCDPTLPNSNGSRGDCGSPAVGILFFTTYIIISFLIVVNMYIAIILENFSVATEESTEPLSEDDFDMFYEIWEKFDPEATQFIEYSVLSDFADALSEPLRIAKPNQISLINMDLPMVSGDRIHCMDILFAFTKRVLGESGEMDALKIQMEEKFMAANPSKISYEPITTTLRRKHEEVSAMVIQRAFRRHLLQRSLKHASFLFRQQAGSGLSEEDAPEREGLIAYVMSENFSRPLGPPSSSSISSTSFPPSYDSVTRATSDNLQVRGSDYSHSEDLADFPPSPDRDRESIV

[1] = use-dependent block, hNav1.7, read-out: IWQ Use Nav1.7
[2] = use-dependent, […], read-out: IWQ Use Nav1.7 (μm)

SMILES	pIC50 (hNav1.7; [1])	pIC50 (hNav1.3; use-dependent block, hNav1.3)	pIC50 (hNav1.5; use-dependent block, hNav1.5)	pIC50 (hNav1.7; use-dependent, […], read-out: IWQ Use Nav1.7)	pIC50 (hNav1.3; use-dependent, […])	pIC50 (hNav1.5; use-dependent, […])	pIC50 (hNav1.7; [2])
CC[C@H](C)[C@@H]1NC(=O)[C@@H]2CSSC[C@@H]3NC(=O)[C@H](C(C)C)NC(=O)[C@H](CC(C)C)NC(=O)[C@H](CC(N)=O)NC(=O)[C@@H]4CCCN4C(=O)[C@H](CCCNC(=N)N)NC(=O)[C@H](CSSC[C@H](NC(=O)[C@@H](N)CC(=O)O)C(=O)N[C@@H](CC(C)C)C(=O)NCC(=O)N[C@@H](Cc4ccccc4)C(=O)N[C@@H](CCSC)C(=O)N[C@@H](CCCNC(=N)N)C(=O)N[C@@H](CCCCN)C(=O)N2)NC(=O)[C@H](CSSC[C@@H](C(=O)N[C@@H](CCCCN)C(=O)N[C@@H](CCCCN)C(=O)N[C@H](C(=O)N[C@@H](Cc2ccccc2)C(=O)N[C@@H](Cc2c[nH]c4ccccc24)C(N)=O)C(C)C)NC(=O)[C@H](Cc2c[nH]c4ccccc24)NC(=O)[C@H](CCCCN)NC(=O)[C@H](Cc2c[nH]cn2)NC(=O)[C@H]([C@@H](C)O)NC(=O)[C@H](CCCNC(=N)N)NC(=O)[C@H](CO)NC3=O)NC(=O)[C@H](CCCCN)NC(=O)[C@H](CC(=O)O)NC(=O)[C@H](CC(N)=O)NC(=O)[C@H](CC(=O)O)NC(=O)[C@@H]2CCCN2C1=O [compound 127] (H-DCLGFMRKCIPDNDKCCRPNLVCSRTHKWCKKVFW-NH2; disulfide 2-17, 9-23, 16-30)	6.14	6.15	4.72				
CC[C@H](C)[C@@H]1NC(=O)[C@@H]2CSSC[C@@H]3NC(=O)[C@H](C(C)C)NC(=O)[C@H](CC(C)C)NC(=O)[C@H](CC(N)=O)NC(=O)[C@@H]4CCCN4C(=O)[C@H](CCCNC(=N)N)NC(=O)[C@H](CSSC[C@H](NC(=O)[C@@H](N)CC(=O)O)C(=O)N[C@@H](CC(C)C)C(=O)NCC(=O)N[C@@H](Cc4ccccc4)C(=O)N[C@@H](CCSC)C(=O)N[C@@H](CCCNC(=N)N)C(=O)N[C@@H](CCCCN)C(=O)N2)NC(=O)[C@H](CSSC[C@@H](C(=O)N[C@@H](CCCCN)C(=O)N[C@@H](Cc2ccc(O)cc2)C(=O)N[C@H](C(=O)N[C@@H](Cc2ccc4ccccc4c2)C(N)=O)C(C)C)NC(=O)[C@H](Cc2c[nH]c4ccccc24)NC(=O)[C@H](CCCCN)NC(=O)[C@H](Cc2c[nH]cn2)NC(=O)[C@H]([C@@H](C)O)NC(=O)[C@H](CCCNC(=N)N)NC(=O)[C@H](CO)NC3=O)NC(=O)[C@H](CCCCN)NC(=O)[C@H](CC(=O)O)NC(=O)[C@H](CC(N)=O)NC(=O)[C@H](CC(=O)O)NC(=O)[C@@H]2CCCN2C1=O [compound 130] (H-DCLGFMRKCIPDNDKCCRPNLVCSRTHKWCKYV[2Nal]-NH2; disulfide 2-17, 9-23, 16-30)				7.40	7.70	5.44	
CC[C@H](C)[C@@H]1NC(=O)[C@@H]2CSSC[C@@H]3NC(=O)[C@H](C(C)C)NC(=O)[C@H](CC(C)C)NC(=O)[C@H](CC(N)=O)NC(=O)[C@@H]4CCCN4C(=O)[C@H](CCCNC(=N)N)NC(=O)[C@H](CSSC[C@H](NC(=O)[C@@H](N)CC(=O)O)C(=O)N[C@@H](CC(C)C)C(=O)NCC(=O)N[C@@H](Cc4ccccc4)C(=O)N[C@@H](CCSC)C(=O)N[C@@H](CCCNC(=N)N)C(=O)N[C@@H](CCCCN)C(=O)N2)NC(=O)[C@H](CSSC[C@@H](C(=O)N[C@@H](CCCCN)C(=O)N[C@@H](Cc2ccc(O)cc2)C(=O)N[C@H](C(=O)N[C@@H](Cc2ccccc2)C(=O)N[C@@H](Cc2ccc4ccccc4c2)C(N)=O)C(C)C)NC(=O)[C@H](Cc2c[nH]c4ccccc24)NC(=O)[C@H](CCCCN)NC(=O)[C@H](Cc2c[nH]cn2)NC(=O)[C@H]([C@@H](C)O)NC(=O)[C@H](CCCNC(=N)N)NC(=O)[C@H](CO)NC3=O)NC(=O)[C@H](CCCCN)NC(=O)[C@H](CC(=O)O)NC(=O)[C@H](CC(N)=O)NC(=O)[C@H](CC(=O)O)NC(=O)[C@@H]2CCCN2C1=O [compound 131]					7.70	5.59	7.30
CC[C@H](C)[C@@H]1NC(=O)[C@@H]2CSSC[C@@H]3NC(=O)[C@H](C(C)C)NC(=O)[C@H](CC(C)C)NC(=O)[C@H](CC(N)=O)NC(=O)[C@@H]4CCCN4C(=O)[C@H](CCCNC(=N)N)NC(=O)[C@H](CSSC[C@H](NC(=O)[C@@H](N)CC(=O)O)C(=O)N[C@@H](CC(C)C)C(=O)NCC(=O)N[C@@H](Cc4ccccc4)C(=O)N[C@@H](CCSC)C(=O)N[C@@H](CCCNC(=N)N)C(=O)N[C@@H](CCCCN)C(=O)N2)NC(=O)[C@H](CSSC[C@@H](C(=O)N[C@@H](CCCCN)C(=O)N[C@@H](Cc2ccc(O)cc2)C(=O)N[C@H](C(=O)N[C@@H](Cc2ccccc2)C(=O)N[C@@H](Cc2c[nH]c4ccccc24)C(=O)O)C(C)C)NC(=O)[C@H](Cc2c[nH]c4ccccc24)NC(=O)[C@H](CCCCN)NC(=O)[C@H](Cc2c[nH]cn2)NC(=O)[C@H]([C@@H](C)O)NC(=O)[C@H](CCCNC(=N)N)NC(=O)[C@H](CO)NC3=O)NC(=O)[C@H](CCCCN)NC(=O)[C@H](CC(=O)O)NC(=O)[C@H](CC(N)=O)NC(=O)[C@H](CC(=O)O)NC(=O)[C@@H]2CCCN2C1=O [compound 133]					6.96	5.08	6.32
CC[C@@H]1NC(=O)[C@H](CCCCN)NC(=O)[C@H](CCCNC(=N)N)NC(=O)[C@H](CCSC)NC(=O)[C@H](Cc2ccccc2)NC(=O)CNC(=O)[C@H](CC(C)C)NC(=O)[C@@H](NC(=O)[C@@H](N)CC(=O)O)CSSC[C@@H]2NC(=O)[C@H](CSSC[C@@H](C(=O)N[C@@H](CCCCN)C(=O)N[C@@H](Cc3ccc(O)cc3)C(=O)N[C@H](C(=O)N[C@@H](Cc3ccccc3)C(N)=O)C(C)C)NC(=O)[C@H](Cc3c[nH]c4ccccc34)NC(=O)[C@H](CCCCN)NC(=O)[C@H](Cc3c[nH]cn3)NC(=O)[C@H]([C@@H](C)O)NC(=O)[C@H](CCCNC(=N)N)NC(=O)[C@H](CO)NC(=O)[C@H](CC)NC(=O)[C@H](C(C)C)NC(=O)[C@H](CC(C)C)NC(=O)[C@H](CC(N)=O)NC(=O)[C@@H]3CCCN3C(=O)[C@H](CCCNC(=N)N)NC2=O)NC(=O)[C@H](CCCCN)NC(=O)[C@H](CC(=O)O)NC(=O)[C@H](CC(N)=O)NC(=O)[C@H](CC(=O)O)NC(=O)[C@@H]2CCCN2C(=O)[C@H]([C@@H](C)CC)NC1=O [compound 135] (H-DCLGFMRK[Abu]IPDNDKCCRPNLV[Abu]SRTHKWCKYVF-NH2; disulfide 2-17, 16-30)	5.09	4.91	5.04				
CC[C@H](C)[C@@H]1NC(=O)[C@@H]2CSSC[C@@H]3NC(=O)[C@H](C(C)C)NC(=O)[C@H](CC(C)C)NC(=O)[C@H](CC(N)=O)NC(=O)[C@@H]4CCCN4C(=O)[C@H](CCCNC(=N)N)NC(=O)[C@H](CSSC[C@H](NC(=O)[C@@H](N)CC(=O)O)C(=O)N[C@@H](CC(C)C)C(=O)NCC(=O)N[C@@H](Cc4ccc5ccccc5c4)C(=O)N[C@@H](CCSC)C(=O)N[C@@H](CCCNC(=N)N)C(=O)N[C@@H](CCCCN)C(=O)N2)NC(=O)[C@H](CSSC[C@@H](C(=O)N[C@@H](CCCCN)C(=O)N[C@@H](Cc2ccc(O)cc2)C(=O)N[C@H](C(=O)N[C@@H](Cc2ccc4ccccc4c2)C(N)=O)C(C)C)NC(=O)[C@H](Cc2c[nH]c4ccccc24)NC(=O)[C@H](CCCCN)NC(=O)[C@H](Cc2c[nH]cn2)NC(=O)[C@H]([C@@H](C)O)NC(=O)[C@H](CCCNC(=N)N)NC(=O)[C@H](CO)NC3=O)NC(=O)[C@H](CCCCN)NC(=O)[C@H](CC(=O)O)NC(=O)[C@H](CC(N)=O)NC(=O)[C@H](CC(=O)O)NC(=O)[C@@H]2CCCN2C1=O [compound 136] (H-DCLG[2Nal]MRKCIPDNDKCCRPNLVCSRTHKWCKYV[2Nal]-NH2; disulfide 2-17, 9-23, 16-30)	6.85	7.52	5.29				
CC[C@H](C)[C@@H]1NC(=O)[C@@H]2CSSC[C@@H]3NC(=O)[C@H](C(C)C)NC(=O)[C@H](CC(C)C)NC(=O)[C@H](CC(N)=O)NC(=O)[C@@H]4CCCN4C(=O)[C@H](CCCNC(=N)N)NC(=O)[C@H](CSSC[C@H](NC(=O)[C@@H](N)CC(=O)O)C(=O)N[C@@H](CC(C)C)C(=O)NCC(=O)N[C@@H](Cc4ccc5ccccc5c4)C(=O)N[C@@H](CCSC)C(=O)N[C@@H](CCCNC(=N)N)C(=O)N[C@@H](CCCCN)C(=O)N2)NC(=O)[C@H](CSSC[C@@H](C(=O)N[C@@H](CCCCN)C(=O)N[C@@H](Cc2ccc(O)cc2)C(=O)N[C@H](C(=O)N[C@@H](Cc2cccc4ccccc24)C(N)=O)C(C)C)NC(=O)[C@H](Cc2c[nH]c4ccccc24)NC(=O)[C@H](CCCCN)NC(=O)[C@H](Cc2c[nH]cn2)NC(=O)[C@H]([C@@H](C)O)NC(=O)[C@H](CCCNC(=N)N)NC(=O)[C@H](CO)NC3=O)NC(=O)[C@H](CCCCN)NC(=O)[C@H](CC(=O)O)NC(=O)[C@H](CC(N)=O)NC(=O)[C@H](CC(=O)O)NC(=O)[C@@H]2CCCN2C1=O [compound 137] (H-DCLG[2Nal]MRKCIPDNDKCCRPNLVCSRTHKWCKYV[1Nal]-NH2; disulfide 2-17, 9-23, 16-30)	6.96	7.70	5.50				
CC[C@H](C)[C@@H]1NC(=O)[C@@H]2CSSC[C@@H]3NC(=O)[C@H](C(C)C)NC(=O)[C@H](CC(C)C)NC(=O)[C@H](CC(N)=O)NC(=O)[C@@H]4CCCN4C(=O)[C@H](CCCNC(=N)N)NC(=O)[C@H](CSSC[C@H](NC(=O)[C@@H](N)CC(=O)O)C(=O)N[C@@H](CC(C)C)C(=O)NCC(=O)N[C@@H](Cc4ccccc4)C(=O)N[C@@H](CCSC)C(=O)N[C@@H](CCCNC(=N)N)C(=O)N[C@@H](CCCCN)C(=O)N2)NC(=O)[C@H](CSSC[C@@H](C(=O)N[C@@H](CCCCN)C(=O)N[C@@H](Cc2ccc(O)cc2)C(=O)N[C@H](C(=O)N[C@@H](Cc2cccc4ccccc24)C(=O)N[C@@H](Cc2c[nH]c4ccccc24)C(N)=O)C(C)C)NC(=O)[C@H](Cc2c[nH]c4ccccc24)NC(=O)[C@H](CCCCN)NC(=O)[C@H](Cc2c[nH]cn2)NC(=O)[C@H]([C@@H](C)O)NC(=O)[C@H](CCCNC(=N)N)NC(=O)[C@H](CO)NC3=O)NC(=O)[C@H](CCCCN)NC(=O)[C@H](CC(=O)O)NC(=O)[C@H](CC(N)=O)NC(=O)[C@H](CC(=O)O)NC(=O)[C@@H]2CCCN2C1=O [compound 138] (H-DCLGFMRKCIPDNDKCCRPNLVCSRTHKWCKYV[1Nal]W-NH2; disulfide 2-17, 9-23, 16-30)	6.89	7.15	5.59				
